Assay results as given in patent publication US20090069343A1, “Combination Histamine H1R and H4R Antagonist Therapy for Treating Pruritus” (priority 2006, published 2009).

Key:
Format in all cases: in vivo, mouse
[1] = test system: Balb/c mice, Compound 48/80-induced itch response; test: Compound 48/80-induced itch response (scratches in 20 min), background example; conditions: for inhibition of itch response: Compound 48/80, FIG. 2
Protocol: The role of histamine H4 receptor in itch responses was evaluated in mice.

[2] = test system: CD-1 mice, histamine-induced itch; test: Histamine-induced itch, Example 1a; conditions: oral dose 20 min before i.d. histamine, FIG. 8
Protocol: Methods. Experiments and procedures were performed under on-site IACUC standards and regulations. Female CD-1 mice (Charles River Hollister, Calif.) of approximately 10-12 weeks of age were used. Mice were housed under controlled light (6:00-18:00 h) and temperature (22° C.) with food and water available ad libitum. Histamine diphosphate (Sigma, St. Louis, Mo.) was dissolved in Dulbecco's phosphate buffered saline (PBS, pH=7.4) at various concentrations. H4R Inhibitor 1 was synthesized as described by Jablonowski et al. (J. Med. Chem. (2003), 46, 3957-3960), dissolved in a vehicle of 20% HPBCD/water at various concentrations, and administered per os (p.o.; by mouth) at a volume of 10 ml/kg. Antagonists of other histamine receptors, H1R (diphenhydramine and desloratadine), H2R (ranitidine) and H3R (1-[3-(4-piperidin-1-ylmethyl-phenoxy)-propyl]-piperidine, (“H3R Antagonist 1”; synthesized as described by Barbier et al., British J. Pharmacology (2004), 143: 649-661) were formulated similarly for use in experiments. In all experiments the hair was clipped over the rostral part of the back 24 hours prior to i.d. injection of pruritogen. Where noted, animals received an oral dose of histamine receptor antagonist 20 minutes prior to injection of pruritogen. Animals were injected i.d. with 20 μl of histamine. PBS was given as the vehicle control (“V). Immediately after intradermal injection, the animals were returned to an acrylic cage (approx. 15 cm dia×30 cm) to which they had been acclimated for at least 1 hour prior to the experiment, for observation of itch responses.

[3] = test system: mice, H4R agonist-induced scratching; test: Selective H4R agonist-induced scratching, background example; conditions: oral administration; FIG. 6
[4] = test system: mice, histamine-induced scratching; test: Histamine-induced scratching, background example; conditions: FIG. 4
Protocol: To evaluate the direct role of histamine in the pruritic response, histamine was injected in to the skin of mice and the amount of scratching measured.

[5] = test system: CD-1 mice, Compound 48/80-induced itch; test: Compound 48/80-induced itch, Example 1b; conditions: oral dose 20 min before i.d. Compound 48/80, FIG. 9
Protocol: Methods. Experiments and procedures were performed under on-site IACUC standards and regulations. Female CD-1 mice (Charles River Hollister, Calif.) of approximately 10-12 weeks of age were used. Mice were housed under controlled light (6:00-18:00 h) and temperature (22° C.) with food and water available ad libitum. Compound 48/80 (Sigma, St. Louis, Mo.) was dissolved in Dulbecco's phosphate buffered saline (PBS, pH=7.4) at 5 mg/ml. H4R Inhibitor 1 (synthesized as previously described) was dissolved in a vehicle of 20% HPBCD/water at various concentrations and administered p.o. at a volume of 10 ml/kg. […] In all experiments the mouse hair was clipped over the rostral part of the back 24 hours prior to i.d. injection of pruritogen. Where noted, animals received an oral dose of histamine receptor antagonist 20 min prior to injection of pruritogen. Animals were injected i.d. with 20 μl of Compound 48/80 or were given PBS as a vehicle control. Immediately after intradermal injection, the animals were returned to an acrylic cage (approx. 15 cm diameter×30 cm height) to which they had been acclimated for at least 1 h prior to the experiment, for observation of itch responses.

Structure (SMILES)	inhibition of itch response ([1]; 3 mg/kg)	reduction of itch response ([1]; 30 mg/kg orally prior to Compound 48/80 injection, Balb/c mice)	inhibition of itch response ([1]; 100 mg/kg (maximally active))	effect on histamine-induced itch [2]	effect on H4R agonist-induced scratching [3]	inhibition of histamine-induced scratching ([4]; 3 mg/kg oral pre-treatment)	inhibition of histamine-induced scratching ([4]; 30 mg/kg oral pre-treatment (maximal))	effect on histamine-induced scratching ([4]; oral pre-treatment)	effect on Compound 48/80-induced itch [5]
CN1CCN(C(=O)c2cc3cc(Cl)ccc3[nH]2)CC1 [H4R Inhibitor 1]	12%	62.5%	68%	significant reduction of histamine-induced itch	inhibitable	17%	75%	dose-dependently inhibited	significantly reduced the itch
CN(C)CCOC(c1ccccc1)c1ccccc1 [diphenhydramine, reference compound]	–	–	–	Small but significant inhibition	–	–	–	–	Small but significant inhibition
Clc1ccc2c(c1)CCc1cccnc1C2=C1CCNCC1 [desloratadine]	–	–	–	no effect	–	–	–	–	–
c1cc(OCCCN2CCCCC2)ccc1CN1CCCCC1 [H3R Antagonist 1, 1-[3-(4-piperidin-1-ylmethyl-phenoxy)-propyl]-piperidine]	–	–	–	neither the H2R antagonist ranitidine nor the H3R antagonist demonstrated significant inhibition	–	–	–	–	–
